Literature values in patent US20110111022A1, “PHARMACEUTICAL FORMULATION” (priority 2008, published 2011).

What was measured:
[1] = target: hepatic cytochrome P450 3A4 (Homo sapiens, UniProt P08684)
[2] = concurrent administration of aliskiren and irbesartan

hepatic cytochrome P450 3A4, sequence (P08684 whole entry): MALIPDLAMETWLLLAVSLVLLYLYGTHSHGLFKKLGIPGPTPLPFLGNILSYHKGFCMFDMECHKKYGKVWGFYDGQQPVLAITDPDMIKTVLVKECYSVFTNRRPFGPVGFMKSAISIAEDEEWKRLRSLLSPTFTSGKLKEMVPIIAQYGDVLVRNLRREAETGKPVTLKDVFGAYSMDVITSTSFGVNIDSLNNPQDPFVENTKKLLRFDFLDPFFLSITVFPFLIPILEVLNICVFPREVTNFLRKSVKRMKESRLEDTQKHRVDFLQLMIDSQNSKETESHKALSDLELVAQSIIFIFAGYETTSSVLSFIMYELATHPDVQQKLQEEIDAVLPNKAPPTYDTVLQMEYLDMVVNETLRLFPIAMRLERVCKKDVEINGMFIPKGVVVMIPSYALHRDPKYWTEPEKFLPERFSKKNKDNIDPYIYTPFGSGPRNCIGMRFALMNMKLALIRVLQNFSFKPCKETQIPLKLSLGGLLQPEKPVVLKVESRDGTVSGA

- decrease in blood aliskiren level [2]: 50%
- solubility in water: easily soluble in water
SMILES: COCCCOc1cc(C[C@@H](C[C@H](N)[C@@H](O)C[C@H](C(=O)NCC(C)(C)C(N)=O)C(C)C)C(C)C)ccc1OC [aliskiren, 2(S),4(S),5(S),7(S)—N-(3-amino-2,2-dimethyl-3-oxopropyl)-2,7-di(1-methylethyl)-4-hydroxy-5-amino-8-[4-methoxy-3-(3-methoxy-propoxy)phenyl]-octanamide]
- metabolism in in vitro experiments [1]: metabolized by hepatic cytochrome P450 3A4
